Source: US20210085640A1, “ACYLATED CATECHIN POLYPHENOLS AND METHODS OF THEIR USE FOR THE TREATMENT OF CANCER” (Flagship Pioneering Innovations V, Inc., priority 2018, published 2021)

Legend:
Type in all cases: cell-based
[1] = test system: T24 bladder cancer cells; assay: Cancer cell survival (CellTiter-Glo), T24; details: Homo sapiens; for viability at 0.101 µM: T-24, 101 nM; for viability at 0.101 µM / viability at 0.318 µM / viability at 1 µM / viability at 3 µM / viability at 10 µM / viability at 32 µM / viability at 100 µM / viability at 316 µM / viability at 1000 µM: 72 h, read-out: Cell survival at given concentration; for viability at 0.318 µM: T-24, 318 nM; for viability at 1 µM: T-24, 1 μM; for viability at 3 µM: T-24, 3 μM; for viability at 10 µM: T-24, 10 μM; for viability at 32 µM: T-24, 32 μM; for viability at 100 µM: T-24, 100 μM; for viability at 316 µM: T-24, 316 μM; for viability at 1000 µM: T-24, 1000 μM
Summary of the method: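 T24 cells seeded at 4×10^3 cells/well overnight, then exposed 72 h at 37 C, 5% CO2 to nine concentrations in triplicate. Survival measured by CellTiter-Glo luminescence relative to untreated and medium controls; IC50 derived.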

[2] = test system: Daudi lymphoma cancer cells; assay: Cancer cell survival (CellTiter-Glo), Daudi; details: Homo sapiens, 72 h; for viability at 0.101 µM: 101 nM; for viability at 0.101 µM / viability at 0.318 µM / viability at 1 µM / viability at 3 µM / viability at 10 µM / viability at 32 µM / viability at 100 µM / viability at 316 µM / viability at 1000 µM: read-out: Cell survival at given concentration; for viability at 0.318 µM: 318 nM
Summary of the method: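 Daudi cells (4×10^3/well) were exposed for 72 h at 37 °C to nine concentrations of compound, added as 10× solutions spanning 1 μM–10 mM (fatty acids) or 100 nM–1 mM (others). CellTiter-Glo luminescence gave % survival versus untreated, medium-blank corrected; IC50 derived.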

[3] = test system: MCF7 breast cancer cells; assay: Cancer cell survival (CellTiter-Glo), MCF7; details: Homo sapiens, 72 h; for viability at 0.101 µM: 101 nM; for viability at 0.101 µM / viability at 0.318 µM / viability at 1 µM / viability at 3 µM / viability at 10 µM / viability at 32 µM / viability at 100 µM / viability at 316 µM / viability at 1000 µM: read-out: Cell survival at given concentration; for viability at 0.318 µM: 318 nM
Summary of the method: (§1)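 Cells were seeded at 4×10^3 cells/well and left overnight at 37 C, 5% CO2, then exposed in triplicate to nine compound concentrations for 72 h. Dosing solutions were made at 10× final (1 μM-10 mM fatty acids, 100 nM-1 mM other compounds). CellTiter-Glo luminescence, normalised to untreated and medium-only wells, gave IC50.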

[4] = test system: HCT 116 colorectal cancer cells; assay: Cancer cell survival (CellTiter-Glo), HCT 116; details: Homo sapiens, HCT 116 cells, 72 h; for viability at 0.101 µM: 101 nM; for viability at 0.101 µM / viability at 0.318 µM / viability at 1 µM / viability at 3 µM / viability at 10 µM / viability at 32 µM / viability at 100 µM / viability at 316 µM / viability at 1000 µM: read-out: Cell survival at given concentration; for viability at 0.318 µM: 318 nM
Summary of the method: as §1

[5] = test system: A549 lung cancer cells; assay: Cancer cell survival (CellTiter-Glo), A549; details: Homo sapiens, 72 h; for viability at 0.101 µM: 101 nM; for viability at 0.101 µM / viability at 0.318 µM / viability at 1 µM / viability at 3 µM / viability at 10 µM / viability at 32 µM / viability at 100 µM / viability at 316 µM / viability at 1000 µM: read-out: Cell survival at given concentration; for viability at 0.318 µM: 318 nM
Summary of the method: as §1

[6] = test system: PC-3 prostate cancer cells; assay: Cancer cell survival (CellTiter-Glo), PC-3; details: Homo sapiens, PC-3 cells, 72 h; for viability at 0.101 µM: 101 nM; for viability at 0.101 µM / viability at 0.318 µM / viability at 1 µM / viability at 3 µM / viability at 10 µM / viability at 32 µM / viability at 100 µM / viability at 316 µM / viability at 1000 µM: read-out: Cell survival at given concentration; for viability at 0.318 µM: 318 nM
Summary of the method: as §1

[7] = test system: A-431 skin cancer cells; assay: Cancer cell survival (CellTiter-Glo), A-431; details: Homo sapiens, A-431 cells, 72 h; for viability at 0.101 µM: 101 nM; for viability at 0.101 µM / viability at 0.318 µM / viability at 1 µM / viability at 3 µM / viability at 10 µM / viability at 32 µM / viability at 100 µM / viability at 316 µM / viability at 1000 µM: read-out: Cell survival at given concentration; for viability at 0.318 µM: 318 nM
Summary of the method: as §1

[8] = test system: AGS stomach cancer cells; assay: Cancer cell survival (CellTiter-Glo), AGS; details: for viability at 0.101 µM / viability at 0.318 µM / viability at 1 µM / viability at 3 µM / viability at 10 µM / viability at 32 µM / viability at 100 µM / viability at 316 µM / viability at 1000 µM: 72 h; for viability at 0.101 µM: 101 nM; for viability at 0.101 µM / viability at 0.318 µM / viability at 316 µM / viability at 1000 µM: read-out: Cell survival at given concentration; for viability at 0.318 µM: 318 nM; for viability at 1 µM / viability at 3 µM / viability at 10 µM / viability at 32 µM / viability at 100 µM: Table 10.1, read-out: Cell survival at given concentration
Summary of the method: as §1

[9] = Human Regulatory T Cell Differentiation Assay; details: human, primary naïve CD4+ T cells isolated from PBMCs, read-out: Cell viability % DMSO
Summary of the method: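 Naïve CD4+ T cells isolated from healthy-donor PBMCs, cultured 6 days with 5 ng/ml TGF-β, 100 U/ml IL-2 and CD3/CD28/CD2 activator, with or without compound. Flow cytometry of live cells; Tregs as CD4+CD25+FOXP3+ percentage of total CD4+ T cells, compared by one-way ANOVA.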

SMILES: O=C[C@H](O)[C@@H](O)[C@@H](O)CO [L-arabinose]
- viability at 0.101 µM [1]: 100%
- viability at 0.318 µM [1]: 103%
- viability at 1 µM [1]: 100%
- viability at 3 µM [1]: 103%
- viability at 10 µM [1]: 102%
- viability at 32 µM [1]: 105%
- viability at 100 µM [1]: 101%
- viability at 316 µM [1]: 101%
- viability at 1000 µM [1]: 104%
- viability at 0.101 µM [2]: 100%
- viability at 0.318 µM [2]: 100%
- viability at 1 µM [2]: 100%
- viability at 3 µM [2]: 99%
- viability at 10 µM [2]: 102%
- viability at 32 µM [2]: 102%
- viability at 100 µM [2]: 103%
- viability at 316 µM [2]: 102%
- viability at 1000 µM [2]: 102%
- viability at 0.101 µM [3]: 99%
- viability at 0.318 µM [3]: 101%
- viability at 1 µM [3]: 98%
- viability at 3 µM [3]: 101%
- viability at 10 µM [3]: 99%
- viability at 32 µM [3]: 101%
- viability at 100 µM [3]: 99%
- viability at 316 µM [3]: 98%
- viability at 1000 µM [3]: 98%
- viability at 0.101 µM [4]: 101%
- viability at 0.318 µM [4]: 101%
- viability at 1 µM [4]: 101%
- viability at 3 µM [4]: 103%
- viability at 10 µM [4]: 103%
- viability at 32 µM [4]: 104%
- viability at 100 µM [4]: 104%
- viability at 316 µM [4]: 102%
- viability at 1000 µM [4]: 99%
- viability at 0.101 µM [5]: 101%
- viability at 0.318 µM [5]: 103%
- viability at 1 µM [5]: 104%
- viability at 3 µM [5]: 102%
- viability at 10 µM [5]: 103%
- viability at 32 µM [5]: 103%
- viability at 100 µM [5]: 102%
- viability at 316 µM [5]: 102%
- viability at 1000 µM [5]: 104%
- viability at 0.101 µM [6]: 103%
- viability at 0.318 µM [6]: 100%
- viability at 1 µM [6]: 100%
- viability at 3 µM [6]: 101%
- viability at 10 µM [6]: 103%
- viability at 32 µM [6]: 101%
- viability at 100 µM [6]: 100%
- viability at 316 µM [6]: 101%
- viability at 1000 µM [6]: 100%
- viability at 0.101 µM [7]: 103%
- viability at 0.318 µM [7]: 102%
- viability at 1 µM [7]: 102%
- viability at 3 µM [7]: 103%
- viability at 10 µM [7]: 103%
- viability at 32 µM [7]: 105%
- viability at 100 µM [7]: 105%
- viability at 316 µM [7]: 105%
- viability at 1000 µM [7]: 102%
- viability at 0.101 µM [8]: 100%
- viability at 0.318 µM [8]: 102%
- viability at 1 µM [8]: 101%
- viability at 3 µM [8]: 102%
- viability at 10 µM [8]: 102%
- viability at 32 µM [8]: 104%
- viability at 100 µM [8]: 105%
- viability at 316 µM [8]: 102%
- viability at 1000 µM [8]: 101%
- viability at 6 days, 0.5 mM ([9]; 0.5 mM): 90 to 110%
- viability at 6 days, 1 mM ([9]; 1 mM): 90 to 110%

SMILES: Oc1ccc(C=Cc2cc(O)cc(O)c2)cc1 [resveratrol]
- viability at 0.101 µM [1]: 100%
- viability at 0.318 µM [1]: 102%
- viability at 1 µM [1]: 100%
- viability at 3 µM [1]: 101%
- viability at 10 µM [1]: 92%
- viability at 32 µM [1]: 1%
- viability at 100 µM [1]: 0%
- viability at 316 µM [1]: 0%
- viability at 1000 µM [1]: 0%
- IC50 ([1]; T-24, 72 h, Table 3.1, read-out: 1050): 15.1 µM
- viability at 0.101 µM [2]: 100%
- viability at 0.318 µM [2]: 101%
- viability at 1 µM [2]: 102%
- viability at 3 µM [2]: 102%
- viability at 10 µM [2]: 101%
- viability at 32 µM [2]: 14%
- viability at 100 µM [2]: 0%
- viability at 316 µM [2]: 0%
- viability at 1000 µM [2]: 0%
- IC50 ([2]; Table 4.1): 23.9 µM
- viability at 0.101 µM [3]: 94%
- viability at 0.318 µM [3]: 96%
- viability at 1 µM [3]: 99%
- viability at 3 µM [3]: 99%
- viability at 10 µM [3]: 95%
- viability at 32 µM [3]: 96%
- viability at 100 µM [3]: 85%
- viability at 316 µM [3]: 27%
- viability at 1000 µM [3]: 0%
- IC50 ([3]; Table 5.1): 212 µM
- viability at 0.101 µM [4]: 103%
- viability at 0.318 µM [4]: 98%
- viability at 1 µM [4]: 98%
- viability at 3 µM [4]: 101%
- viability at 10 µM [4]: 98%
- viability at 32 µM [4]: 65%
- viability at 100 µM [4]: 0%
- viability at 316 µM [4]: 0%
- viability at 1000 µM [4]: 0%
- IC50 ([4]; Table 6.1): 37.4 µM
- viability at 0.101 µM [5]: 98%
- viability at 0.318 µM [5]: 99%
- viability at 1 µM [5]: 98%
- viability at 3 µM [5]: 98%
- viability at 10 µM [5]: 98%
- viability at 32 µM [5]: 96%
- viability at 100 µM [5]: 88%
- viability at 316 µM [5]: 50%
- viability at 1000 µM [5]: 0%
- IC50 ([5]; Table 7.1): 317 µM
- viability at 0.101 µM [6]: 101%
- viability at 0.318 µM [6]: 102%
- viability at 1 µM [6]: 101%
- viability at 3 µM [6]: 102%
- viability at 10 µM [6]: 103%
- viability at 32 µM [6]: 96%
- viability at 100 µM [6]: 95%
- viability at 316 µM [6]: 32%
- viability at 1000 µM [6]: 0%
- IC50 ([6]; Table 8.1): 248 µM
- viability at 0.101 µM [7]: 101%
- viability at 0.318 µM [7]: 101%
- viability at 1 µM [7]: 102%
- viability at 3 µM [7]: 102%
- viability at 10 µM [7]: 98%
- viability at 32 µM [7]: 87%
- viability at 100 µM [7]: 65%
- viability at 316 µM [7]: 13%
- viability at 1000 µM [7]: 0%
- IC50 ([7]; Table 9.1): 132 µM
- viability at 0.101 µM [8]: 100%
- viability at 0.318 µM [8]: 95%
- viability at 1 µM [8]: 101%
- viability at 3 µM [8]: 98%
- viability at 10 µM [8]: 100%
- viability at 32 µM [8]: 101%
- viability at 100 µM [8]: 94%
- viability at 316 µM [8]: 33%
- viability at 1000 µM [8]: 0%
- IC50 ([8]; Table 10.1): 252 µM
- viability at 6 days, 1 µM ([9]; 1 uM): < 90%
